Test results published in publication PMC7016291 (Acta Pharmaceutica Sinica. B, 2019).
Values joined by “and” are separate entries in the source; they are usually repeats but may differ in a detail not shown here. Equal entries are not always repeated.

Tests used:
CYP2D6 = CYP2D6 (Homo sapiens, UniProt P10635); assay: biochemical
HIV-1 Y181C = assay: Anti-HIV-1 activity against mutant strain Y181C in MT-4 cells; format: cell-based; conditions: Human immunodeficiency virus 1, MT4, read-out: EC50 Y181C
CYP2C9 = CYP2C9 (Homo sapiens, UniProt P11712); assay: Cytochrome P450 inhibition, CYP2C9; format: in vitro ADME
CYP2C9, sequence (P11712 whole entry): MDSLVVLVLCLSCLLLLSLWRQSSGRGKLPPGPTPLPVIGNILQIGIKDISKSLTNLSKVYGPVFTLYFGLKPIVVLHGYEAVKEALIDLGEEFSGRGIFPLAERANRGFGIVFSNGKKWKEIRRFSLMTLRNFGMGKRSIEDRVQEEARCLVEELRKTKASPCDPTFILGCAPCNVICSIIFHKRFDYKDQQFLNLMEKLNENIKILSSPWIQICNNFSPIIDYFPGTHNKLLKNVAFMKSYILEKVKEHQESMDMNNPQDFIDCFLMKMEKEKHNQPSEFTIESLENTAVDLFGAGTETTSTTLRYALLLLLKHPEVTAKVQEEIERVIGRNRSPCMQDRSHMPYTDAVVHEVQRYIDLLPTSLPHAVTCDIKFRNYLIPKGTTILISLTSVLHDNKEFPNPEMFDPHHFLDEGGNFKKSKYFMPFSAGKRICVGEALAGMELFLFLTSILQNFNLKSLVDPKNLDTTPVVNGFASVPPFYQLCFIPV

[1] = Plasma protein binding, dialysis equilibrium method, rat
WT HIV-1 RT = WT HIV-1 RT (Human immunodeficiency virus type 1 group M subtype B, UniProt P03366); assay: HIV-1 RT inhibition assay; format: biochemical
CYP2C19 = CYP2C19 (Homo sapiens, UniProt P33261); assay: Cytochrome P450 inhibition, CYP2C19; format: in vitro ADME
CYP2C19, sequence (P33261 whole entry): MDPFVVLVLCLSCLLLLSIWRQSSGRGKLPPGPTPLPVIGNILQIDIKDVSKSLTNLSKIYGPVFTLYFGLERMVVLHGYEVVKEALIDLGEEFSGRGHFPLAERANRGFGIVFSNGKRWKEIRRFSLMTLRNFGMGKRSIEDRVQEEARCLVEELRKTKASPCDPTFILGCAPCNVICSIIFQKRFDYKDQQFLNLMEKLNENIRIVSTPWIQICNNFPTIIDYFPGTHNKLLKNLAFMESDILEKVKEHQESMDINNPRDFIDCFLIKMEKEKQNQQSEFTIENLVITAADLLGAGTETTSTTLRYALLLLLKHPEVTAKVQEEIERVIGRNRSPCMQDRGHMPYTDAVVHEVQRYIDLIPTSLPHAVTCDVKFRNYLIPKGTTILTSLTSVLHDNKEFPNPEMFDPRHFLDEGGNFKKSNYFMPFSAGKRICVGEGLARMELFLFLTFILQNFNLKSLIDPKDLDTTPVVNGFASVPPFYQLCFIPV

[2] = Cytotoxicity in uninfected MT-4 cells; format: cell-based; conditions: human, uninfected MT-4 cells
[3] = In vivo pharmacokinetics in SD rats; conditions: rat, plasma
HIV-1 F227L + V106A = assay: Anti-HIV-1 activity against double mutant F227L + V106A in MT-4 cells; format: cell-based; conditions: Human immunodeficiency virus 1, MT4, read-out: EC50 F227L + V106A
HIV-1 L100I = assay: Anti-HIV-1 activity against mutant strain L100I in MT-4 cells; format: cell-based; conditions: Human immunodeficiency virus 1, MT4, read-out: EC50 L100I
HIV-2 (ROD) = assay: Anti-HIV activity in MT-4 cells; format: cell-based; conditions: Human immunodeficiency virus 2, MT4, read-out: EC50 ROD
HIV-1 K103N = assay: Anti-HIV-1 activity against mutant strain K103N in MT-4 cells; format: cell-based; conditions: Human immunodeficiency virus 1, MT4, read-out: EC50 K103N
[4] = Plasma protein binding, dialysis equilibrium method, human
[5] = system: HIV-1 RES056 (K103N/Y181C); assay: Anti-HIV-1 activity against double mutant RES056 in MT-4 cells; format: cell-based; conditions: Human immunodeficiency virus 1, MT4, read-out: EC50 RES056
[6] = Kinetic aqueous solubility; conditions: kinetic from dmso stock
HIV-1 E138K = assay: Anti-HIV-1 activity against mutant strain E138K in MT-4 cells; format: cell-based; conditions: Human immunodeficiency virus 1, MT4, read-out: EC50 E138K
HIV-1 Y188L = assay: Anti-HIV-1 activity against mutant strain Y188L in MT-4 cells; format: cell-based; conditions: Human immunodeficiency virus 1, MT4, read-out: EC50 Y188L
CYP1A2 = biological target: T1, CYP1A2 (Homo sapiens, UniProt P05177); assay: biochemical
T1 sequence (P05177 1-516): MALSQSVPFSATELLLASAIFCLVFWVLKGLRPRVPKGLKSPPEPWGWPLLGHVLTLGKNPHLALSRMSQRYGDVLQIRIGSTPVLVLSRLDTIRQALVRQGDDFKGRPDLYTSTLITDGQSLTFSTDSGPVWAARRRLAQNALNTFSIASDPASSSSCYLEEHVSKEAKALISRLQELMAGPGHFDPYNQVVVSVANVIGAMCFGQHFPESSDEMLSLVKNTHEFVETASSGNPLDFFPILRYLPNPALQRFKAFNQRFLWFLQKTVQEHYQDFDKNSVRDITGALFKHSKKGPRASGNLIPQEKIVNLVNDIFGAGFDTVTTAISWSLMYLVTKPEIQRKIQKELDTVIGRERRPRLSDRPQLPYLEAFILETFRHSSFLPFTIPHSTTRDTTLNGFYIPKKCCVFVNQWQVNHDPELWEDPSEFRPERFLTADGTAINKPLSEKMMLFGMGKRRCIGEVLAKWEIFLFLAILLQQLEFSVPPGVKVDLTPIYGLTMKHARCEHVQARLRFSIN

HIV-1 RT RNase H = HIV-1 RT RNase H (Human immunodeficiency virus type 1 group M subtype B, UniProt P03366); assay: HIV-1 RT RNase H inhibition; format: biochemical
CYP3A4M = CYP3A4M (Homo sapiens, UniProt P08684)
CYP3A4M, sequence (P08684 whole entry): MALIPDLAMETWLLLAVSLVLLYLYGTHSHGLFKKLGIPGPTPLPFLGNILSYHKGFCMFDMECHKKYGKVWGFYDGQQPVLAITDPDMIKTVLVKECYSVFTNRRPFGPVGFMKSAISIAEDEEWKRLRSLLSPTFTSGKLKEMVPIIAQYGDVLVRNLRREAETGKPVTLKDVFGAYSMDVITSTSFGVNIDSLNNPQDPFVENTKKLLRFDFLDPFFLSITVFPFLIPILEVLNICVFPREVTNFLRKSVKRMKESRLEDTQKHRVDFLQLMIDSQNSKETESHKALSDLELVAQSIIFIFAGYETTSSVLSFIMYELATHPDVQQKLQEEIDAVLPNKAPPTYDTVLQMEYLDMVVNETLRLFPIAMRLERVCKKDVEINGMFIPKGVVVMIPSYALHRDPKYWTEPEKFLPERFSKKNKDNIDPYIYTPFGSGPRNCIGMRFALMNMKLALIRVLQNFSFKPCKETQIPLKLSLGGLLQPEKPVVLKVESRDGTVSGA

CYP2D6, sequence (P10635 whole entry): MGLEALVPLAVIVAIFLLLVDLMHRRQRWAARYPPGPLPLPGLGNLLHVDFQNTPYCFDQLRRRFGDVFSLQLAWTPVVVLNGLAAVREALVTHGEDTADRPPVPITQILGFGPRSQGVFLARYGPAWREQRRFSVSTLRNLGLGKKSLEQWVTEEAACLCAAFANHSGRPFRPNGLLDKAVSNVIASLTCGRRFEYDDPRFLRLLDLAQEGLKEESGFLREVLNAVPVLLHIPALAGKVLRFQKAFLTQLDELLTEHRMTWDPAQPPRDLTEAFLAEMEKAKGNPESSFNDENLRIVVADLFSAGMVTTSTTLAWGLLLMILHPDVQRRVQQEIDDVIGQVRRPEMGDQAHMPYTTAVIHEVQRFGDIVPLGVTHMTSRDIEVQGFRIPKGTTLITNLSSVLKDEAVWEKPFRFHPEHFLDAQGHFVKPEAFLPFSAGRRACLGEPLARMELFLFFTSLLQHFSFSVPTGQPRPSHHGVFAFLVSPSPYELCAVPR

Cc1cc(-c2ccc(C#N)cc2)cc(C)c1Oc1nc(NCCN2CCOCC2)nc(Nc2ccc(C#N)cc2)n1 [Compound 5j, 4ʹ-((4-((4-Cyanophenyl)amino)-6-((2-morpholinoethyl)amino)-1,3,5-triazin-2-yl)-oxy)-3ʹ,5ʹ-dimethyl-[1,1ʹ-biphenyl]-4-carbonitrile]
IC50 (CYP2D6): > 50 µM | EC50 (HIV-1 Y181C): 0.013 ± 0.002 µM | IC50 (CYP2C9): 32.9 µM | recovery at 2 μmol/L [1]: 99.5% | IC50 (WT HIV-1 RT): 0.176 µM | IC50 (CYP2C19): > 50 µM | CC50 at 4 days [2]: 1.08 ± 0.09 µM | AUC(0-inf) ([3]; iv, 1 mg/kg): 6660 ± 809 ng·h/mL | AUC(0-t) ([3]; iv, 1 mg/kg): 6650 ± 795 ng·h/mL | clearance ([3]; iv, 1 mg/kg): 5.06 ± 0.658 mL/min/kg | half-life ([3]; iv, 1 mg/kg): 0.734 ± 0.174 h | AUC(0-t) ([3]; po, 20 mg/kg): 322 ± 176 ng·h/mL | Cmax ([3]; po, 20 mg/kg): 43.2 ± 39.8 ng/mL | Tmax ([3]; po, 20 mg/kg): 13.3 ± 9.24 h | bioavailability ([3]; po, 20 mg/kg): 0.485% | EC50 (HIV-1 F227L + V106A): 0.017 ± 0.004 µM | EC50 (HIV-1 L100I): 0.012 ± 0.002 µM | EC50 (HIV-2 (ROD)): 0.05 ± 0.001 µM | EC50 (HIV-1 K103N): 0.003 ± 0.001 µM | recovery at 2 μmol/L [4]: 84.9% | EC50 [5]: 0.034 ± 0.004 µM | solubility kinetic ([6]; FaSSIF): 41.6 µg/mL and 76.2 µM | solubility kinetic ([6]; aqueous solution at pH 2.0, pH 2, aqueous buffer): 6.58 µg/mL and 12.1 µM | solubility kinetic ([6]; aqueous solution at pH 7.0, pH 7, aqueous buffer): < 0.853 µg/mL and < 1.56 µM | solubility kinetic ([6]; aqueous solution at pH 7.4, pH 7.4, aqueous buffer): < 0.853 µg/mL and < 1.56 µM | EC50 (HIV-1 E138K): 0.0064 ± 0.0001 µM | EC50 (HIV-1 Y188L): 0.017 ± 0.003 µM | IC50 (CYP1A2): > 50 µM | IC50 (HIV-1 RT RNase H): > 1100 µM | IC50 (CYP3A4M): > 50 µM
